Where two headings read alike, the source gives them in different places. Some results are limits rather than exact numbers.

In data set [1] the test system is Clostridium beijerinckii ATCC 10132. The following applies: butanol 1.5% to 3.5%, 37° C., 144 h. On the procedure: The tolerance was tested in both, the un-optimized AnS medium and optimized AnS medium. The bottles were inoculated with Clostridium beijerinckii ATCC 10132 After inoculation, the medium was incubated at 37° C. for 144 h and the OD at 600 nm was monitored at a regular interval of 12 h.

Data set [2] has as its system biological systems. Conditions: Jones and Wood, 1986; cited from earlier work.

For `CCCCO` [butanol, n-butanol], the “butanol concentration tolerated (growth, OD 600 nm)” value in data set [1] (optimized AnS medium) was no more than 3.5%; in data set [1] (un-optimized AnS medium), “up to 3.0%”. For the same compound, the “concentration at which butanol is highly toxic to biological systems” value in data set [2] is given as 2%.

Values taken from patent US9217163B2 (priority 2007, dated 2015).
